Data taken from ChEMBL document CHEMBL1201862, “PubChem BioAssay data set” (2004).
Active and inactive are the calls of the source.

Legend:
[1] = HepG2 cell cytotoxicity, dose response, cytotoxicity control for non-replicating M. tuberculosis project (AID 489018); assay type: functional; conditions: Mycobacterium tuberculosis
Protein RecA = biological target: T1, Protein RecA (Mycobacterium tuberculosis, UniProt P9WHJ3); assay: Fluorescence Cell-Free Homogeneous Dose Retest to Identify Inhibitors of RecA-Intein Splicing Activity. [Related pubchem assays (depositor defined):AID2097, AID2223, AID489010, AID492950]; assay type: functional
T1 sequence (P9WHJ3 whole entry): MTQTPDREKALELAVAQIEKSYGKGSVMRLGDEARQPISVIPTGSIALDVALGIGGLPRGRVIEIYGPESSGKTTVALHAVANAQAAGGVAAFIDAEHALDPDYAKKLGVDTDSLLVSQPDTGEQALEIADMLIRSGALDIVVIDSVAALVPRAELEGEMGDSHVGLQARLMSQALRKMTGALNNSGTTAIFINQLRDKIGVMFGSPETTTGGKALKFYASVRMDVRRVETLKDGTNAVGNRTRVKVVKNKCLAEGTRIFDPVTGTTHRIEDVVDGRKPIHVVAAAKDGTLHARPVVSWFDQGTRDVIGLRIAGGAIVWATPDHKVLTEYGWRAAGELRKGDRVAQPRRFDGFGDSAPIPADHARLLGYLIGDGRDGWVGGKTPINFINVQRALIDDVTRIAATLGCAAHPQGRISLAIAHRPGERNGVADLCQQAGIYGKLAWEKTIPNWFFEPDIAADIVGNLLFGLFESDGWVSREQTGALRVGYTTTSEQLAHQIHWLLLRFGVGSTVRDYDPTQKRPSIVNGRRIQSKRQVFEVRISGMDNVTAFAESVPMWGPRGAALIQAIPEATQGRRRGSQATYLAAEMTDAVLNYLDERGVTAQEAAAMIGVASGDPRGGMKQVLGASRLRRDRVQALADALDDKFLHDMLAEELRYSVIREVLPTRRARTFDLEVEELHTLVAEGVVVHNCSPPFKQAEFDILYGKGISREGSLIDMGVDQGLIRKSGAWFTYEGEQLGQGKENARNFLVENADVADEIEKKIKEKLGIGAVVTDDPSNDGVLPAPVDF

cells [2] = assay type: functional
[3] = biological target: T2, Replicative DNA helicase DnaB (Mycobacterium tuberculosis, UniProt P9WMR3); assay: DnaB intein splicing inhibitors, dose response, biochemical, cell-free fluorescence (AID 449749); assay type: functional
T2 sequence (P9WMR3 whole entry): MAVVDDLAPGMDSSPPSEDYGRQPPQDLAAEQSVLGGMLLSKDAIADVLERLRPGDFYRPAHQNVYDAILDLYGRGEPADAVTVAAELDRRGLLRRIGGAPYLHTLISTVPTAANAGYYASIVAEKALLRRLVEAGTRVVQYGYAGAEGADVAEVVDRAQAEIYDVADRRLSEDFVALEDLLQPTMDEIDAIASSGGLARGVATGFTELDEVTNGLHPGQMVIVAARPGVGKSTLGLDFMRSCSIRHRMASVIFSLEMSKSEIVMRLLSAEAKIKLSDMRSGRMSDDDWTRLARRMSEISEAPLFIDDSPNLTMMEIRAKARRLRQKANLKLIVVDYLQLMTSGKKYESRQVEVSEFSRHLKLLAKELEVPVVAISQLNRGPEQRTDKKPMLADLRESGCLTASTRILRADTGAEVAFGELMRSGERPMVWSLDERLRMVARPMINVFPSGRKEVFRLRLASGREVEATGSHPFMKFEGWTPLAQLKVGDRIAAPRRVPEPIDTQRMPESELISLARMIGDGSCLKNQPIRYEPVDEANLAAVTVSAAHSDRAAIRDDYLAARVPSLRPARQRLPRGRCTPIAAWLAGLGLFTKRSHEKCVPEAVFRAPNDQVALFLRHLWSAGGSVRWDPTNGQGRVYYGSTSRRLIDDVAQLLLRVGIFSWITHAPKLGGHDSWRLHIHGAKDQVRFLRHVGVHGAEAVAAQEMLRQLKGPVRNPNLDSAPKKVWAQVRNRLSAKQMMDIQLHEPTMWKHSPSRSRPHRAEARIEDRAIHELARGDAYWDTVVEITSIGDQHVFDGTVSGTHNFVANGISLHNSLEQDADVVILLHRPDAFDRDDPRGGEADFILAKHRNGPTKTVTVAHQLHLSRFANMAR

[4] = THP-1 cell cytotoxicity, dose response, cytotoxicity control for non-replicating M. tuberculosis project (AID 489025); assay type: functional
[5] = non-specific cell cytotoxicity, dose response, cytotoxicity control for PAX8 inhibitor project, plate reader, dry powder samples (AID 743021); assay type: functional, cell-based
[6] = Vero E6 cell cytotoxicity, dose response, cytotoxicity control for non-replicating M. tuberculosis project, secondary assay (AID 492998); assay type: functional, VeroE6; conditions: Vero C1008
[7] = Fluorescence-based cell-based high throughput dose response assay for inhibitors of the interaction of nucleotide-binding oligomerization domain containing 2 (NOD2) and the receptor-interacting serine-threonine kinase 2 (RIPK2).; assay type: functional; conditions: Homo sapiens
Paired box protein Pax-8 = Paired box protein Pax-8 (Homo sapiens, UniProt Q06710); assay: inhibitors of PAX8-driven TPO luciferase reporter, dose response, RMG-I cells, cherry-pick (AID 687027); assay type: functional, cell-based;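 also: luciferase reporter driven by Pax8 target thyroperoxidase promoter measured by SteadyGlo luminescence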
[8] = biological target: T3, Heat shock factor protein 1 (Mus musculus, UniProt P38532); assay: HSF1 potentiators in luciferase reporter cells, confirmation, cell-based, NIH3T3, luminescence, dose retest (AID 435004); assay type: functional;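 also: stress induced by proteasome inhibitor MG132 added 30 min after compound; luciferase reporter driven by HSF1 response element in NIH3T3 cells; actives raise luminescence as potentiators of the MG132 stress response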
T3 sequence (P38532 whole entry): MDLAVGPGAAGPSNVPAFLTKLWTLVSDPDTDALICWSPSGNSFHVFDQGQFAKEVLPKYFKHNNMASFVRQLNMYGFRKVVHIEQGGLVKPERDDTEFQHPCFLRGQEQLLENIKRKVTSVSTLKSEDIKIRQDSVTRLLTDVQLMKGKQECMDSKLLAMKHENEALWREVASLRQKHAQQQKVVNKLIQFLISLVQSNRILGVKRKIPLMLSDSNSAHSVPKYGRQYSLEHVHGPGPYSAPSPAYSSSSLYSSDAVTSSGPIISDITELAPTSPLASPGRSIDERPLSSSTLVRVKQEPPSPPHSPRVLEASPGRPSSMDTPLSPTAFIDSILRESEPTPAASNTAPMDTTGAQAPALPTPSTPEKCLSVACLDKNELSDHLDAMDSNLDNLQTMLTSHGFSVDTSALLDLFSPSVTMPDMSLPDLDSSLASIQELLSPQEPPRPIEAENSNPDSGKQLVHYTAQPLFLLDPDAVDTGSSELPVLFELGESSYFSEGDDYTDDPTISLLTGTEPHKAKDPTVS

[9] = Luminescent dose response cell-based high throughput screening assay for inhibitors of the Janus kinase 2 mutant JAK2V617F. [Related pubchem assays: 1446 (Primary screen.), 1521 (Confirmation assay.), 1486 (Counter screen.)]; assay type: functional
Danio rerio = assay: In Vivo Angiogenesis Dose-Response Confirmation. [Related pubchem assays: 732 (Assay preceding this confirmatory assay.)]; assay type: functional, organism-based
Genome polyprotein [10] = biological target: Genome polyprotein (Hepatitis C virus, UniProt Q2Q167); assay: HCV core protein dimerization inhibitors, dose response, biochemical, TR-FRET (AID 2159); parameters: species or system Hepacivirus hominis;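 also: blocks dimerization of HCV core protein measured by TR-FRET between tagged core106 pairs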
SUMO-activating enzyme [11] = biological target: T4, SUMO-activating enzyme (Homo sapiens, UniProt Q9UBT2); assay: SUMOylation inhibitor hit validation, confirmation, SUMOylation inhibitor project, biochemical, AlphaScreen (AID 2018); assay type: functional
Genome polyprotein [12] = biological target: Genome polyprotein (dengue virus type 2, UniProt P29990); assay: Dengue-2 NS5 methyltransferase inhibitors, primary screen, biochemical, confirmation dose response (AID 588689); assay type: functional
SUMO-activating enzyme [13] = biological target: T4, SUMO-activating enzyme; assay: inhibitors of in vitro SUMOylation cascade, primary screen, biochemical, HTRF, uHTS (AID 2006); assay type: protein-complex assay
[14] = biological target: Mitogen-activated protein kinase 10 (Homo sapiens, UniProt P53779); assay: Dose response biochemical screening assay for inhibitors of c-Jun N-Terminal Kinase 3 (JNK3). [Related pubchem assays: 746 ]
[15] = system: Streptococcus sp. 'group A'; assay: growth inhibition of control SK(-) GAS strain, dose response, counter-screen for streptokinase expression inhibitor project, luminescence, kanamycin, BacTiterGlo, confirmation (AID 1900); assay type: functional, organism-based
[16] = biological target: Sphingosine 1-phosphate receptor 2 (Homo sapiens, UniProt O95136); assay: Dose Response Cell Based Assay for Antagonists of the S1P2 Receptor. [Related pubchem assays: 856, 736 ]; assay type: functional
cells [17] = assay type: functional, cell-based; conditions: HEK-CNG
[18] = HepG2 cell cytotoxicity, dose response, cytotoxicity control for Shn3 inhibitor project, CellTiter-Glo, cherry-picked (AID 624134); assay type: functional, cell-based
[19] = control 3'UTR Renilla luciferase suppression, dose response, counter-screen for Shn3 inhibitor project, cell-based, Clone20-Shn3RL, cherry-picked (AID 624133); assay type: functional
[20] = cytotoxicity in KRAS-transformed pancreatic duct cells, primary screen, cell-based, fluorescence, HTS (AID 431); assay type: functional; conditions: Homo sapiens;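 also: cell line used: HPDE-C7K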
Galanin receptor type 3 = Galanin receptor type 3 (Homo sapiens, UniProt O60755); assay: Fluorescence-based cell-based primary high throughput dose response assay to identify antagonists of the Galanin Receptor 3 (GalR3).; assay type: functional
Streptococcus = assay: Group A Streptococcus viability loss, dose response, counter-screen for streptokinase expression inhibitor project, luminescence, BacTiterGlo (AID 1915); assay type: functional, organism-based;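 also: potency for reduction of bacterial viability or growth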
[21] = Shn3 3'UTR reporter inhibitors, dose response, cell-based, Clone20 osteoblasts, firefly luciferase, cherry-picked (AID 624132); assay type: functional;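 also: firefly luciferase luminescence from reporter carrying the Shn3 3'UTR in osteoblasts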
[22] = cytotoxicity in HPDE-C7 cells, cell-based, fluorescence, HTS (AID 430); assay type: functional; conditions: Homo sapiens
HEK293 = assay: inhibitors of LMP1-driven NF-kB reporter, dose response, cell-based, HEK293, luciferase, cherry-pick (AID 588343); assay type: functional; conditions: Homo sapiens

T4 sequence (Q9UBE0 whole entry): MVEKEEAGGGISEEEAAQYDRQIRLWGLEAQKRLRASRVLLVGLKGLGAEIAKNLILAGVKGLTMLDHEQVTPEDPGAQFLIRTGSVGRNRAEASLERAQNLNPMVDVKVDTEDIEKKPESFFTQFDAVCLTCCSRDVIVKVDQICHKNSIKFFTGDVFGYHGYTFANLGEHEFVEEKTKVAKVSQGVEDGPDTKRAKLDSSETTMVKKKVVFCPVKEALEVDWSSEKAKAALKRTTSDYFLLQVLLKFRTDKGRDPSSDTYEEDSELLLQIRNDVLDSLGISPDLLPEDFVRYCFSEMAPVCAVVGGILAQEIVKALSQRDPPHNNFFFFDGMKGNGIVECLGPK
T4 sequence (Q9UBT2 whole entry): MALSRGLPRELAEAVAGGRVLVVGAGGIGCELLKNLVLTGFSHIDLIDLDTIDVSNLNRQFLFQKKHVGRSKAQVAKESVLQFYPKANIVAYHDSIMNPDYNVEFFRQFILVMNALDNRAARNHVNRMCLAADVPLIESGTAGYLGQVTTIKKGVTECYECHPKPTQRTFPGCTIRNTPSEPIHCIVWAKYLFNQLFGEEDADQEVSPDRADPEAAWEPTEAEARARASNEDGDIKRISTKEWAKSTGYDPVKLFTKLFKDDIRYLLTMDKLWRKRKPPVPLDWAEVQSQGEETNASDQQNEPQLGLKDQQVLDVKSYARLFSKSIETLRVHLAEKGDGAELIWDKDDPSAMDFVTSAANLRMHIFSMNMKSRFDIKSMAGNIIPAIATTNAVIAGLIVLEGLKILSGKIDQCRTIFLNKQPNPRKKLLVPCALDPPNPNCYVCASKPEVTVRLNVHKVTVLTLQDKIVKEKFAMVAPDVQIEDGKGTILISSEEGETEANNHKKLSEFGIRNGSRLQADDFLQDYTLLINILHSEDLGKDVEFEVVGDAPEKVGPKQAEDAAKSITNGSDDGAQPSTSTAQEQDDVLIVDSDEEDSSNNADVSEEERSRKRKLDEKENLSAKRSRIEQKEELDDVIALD
Genome polyprotein (Hepatitis C virus, UniProt Q2Q167), sequence (Q2Q167 whole entry): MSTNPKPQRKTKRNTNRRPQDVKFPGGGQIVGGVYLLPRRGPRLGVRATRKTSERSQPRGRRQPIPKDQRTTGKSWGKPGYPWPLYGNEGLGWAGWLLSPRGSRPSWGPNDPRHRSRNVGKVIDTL
Paired box protein Pax-8, sequence (Q06710 whole entry): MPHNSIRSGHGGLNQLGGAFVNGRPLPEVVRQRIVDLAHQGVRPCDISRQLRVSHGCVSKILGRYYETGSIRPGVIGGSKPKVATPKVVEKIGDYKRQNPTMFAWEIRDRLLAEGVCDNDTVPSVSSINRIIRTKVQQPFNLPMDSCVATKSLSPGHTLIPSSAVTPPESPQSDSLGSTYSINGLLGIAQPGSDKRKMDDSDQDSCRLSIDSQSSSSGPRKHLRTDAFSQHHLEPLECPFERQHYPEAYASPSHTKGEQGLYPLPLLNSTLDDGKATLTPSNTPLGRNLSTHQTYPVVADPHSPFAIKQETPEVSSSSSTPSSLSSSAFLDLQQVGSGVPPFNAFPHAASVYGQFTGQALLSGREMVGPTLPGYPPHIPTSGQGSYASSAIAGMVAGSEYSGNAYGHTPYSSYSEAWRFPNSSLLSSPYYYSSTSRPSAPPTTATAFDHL
Sphingosine 1-phosphate receptor 2, sequence (O95136 whole entry): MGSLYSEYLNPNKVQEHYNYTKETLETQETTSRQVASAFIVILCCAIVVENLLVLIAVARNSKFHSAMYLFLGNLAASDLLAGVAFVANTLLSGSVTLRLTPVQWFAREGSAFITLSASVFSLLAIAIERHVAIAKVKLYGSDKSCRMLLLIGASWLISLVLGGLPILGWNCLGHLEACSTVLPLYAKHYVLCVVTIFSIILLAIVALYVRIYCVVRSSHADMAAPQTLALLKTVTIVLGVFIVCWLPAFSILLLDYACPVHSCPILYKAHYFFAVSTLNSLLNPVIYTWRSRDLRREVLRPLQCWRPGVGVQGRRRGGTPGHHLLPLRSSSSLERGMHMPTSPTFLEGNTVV
Genome polyprotein (dengue virus type 2, UniProt P29990), sequence (P29990 2492-3391 limits assumed): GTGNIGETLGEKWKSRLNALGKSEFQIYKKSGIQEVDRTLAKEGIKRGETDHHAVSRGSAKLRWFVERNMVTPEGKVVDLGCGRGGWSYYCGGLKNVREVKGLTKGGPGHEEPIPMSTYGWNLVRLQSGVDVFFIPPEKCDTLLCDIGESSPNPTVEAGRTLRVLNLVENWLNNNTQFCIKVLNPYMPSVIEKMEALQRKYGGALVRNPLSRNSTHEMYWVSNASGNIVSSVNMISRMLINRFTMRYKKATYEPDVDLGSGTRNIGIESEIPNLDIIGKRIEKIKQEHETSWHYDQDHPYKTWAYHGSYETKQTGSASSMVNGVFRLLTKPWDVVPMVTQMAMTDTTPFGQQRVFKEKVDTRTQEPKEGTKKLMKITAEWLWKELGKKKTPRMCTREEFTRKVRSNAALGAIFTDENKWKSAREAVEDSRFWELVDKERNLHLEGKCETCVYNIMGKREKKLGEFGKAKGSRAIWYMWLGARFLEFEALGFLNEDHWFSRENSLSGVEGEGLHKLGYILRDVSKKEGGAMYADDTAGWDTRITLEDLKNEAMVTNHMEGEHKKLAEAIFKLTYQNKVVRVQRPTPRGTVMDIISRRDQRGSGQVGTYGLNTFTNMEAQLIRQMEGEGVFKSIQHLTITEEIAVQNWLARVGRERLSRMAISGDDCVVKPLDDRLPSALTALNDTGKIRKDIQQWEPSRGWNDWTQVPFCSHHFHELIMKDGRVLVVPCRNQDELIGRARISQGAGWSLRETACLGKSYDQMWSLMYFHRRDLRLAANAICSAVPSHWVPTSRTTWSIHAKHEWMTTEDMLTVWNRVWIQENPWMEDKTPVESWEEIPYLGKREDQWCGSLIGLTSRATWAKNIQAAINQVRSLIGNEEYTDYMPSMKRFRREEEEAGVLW
Mitogen-activated protein kinase 10, sequence (P53779 whole entry): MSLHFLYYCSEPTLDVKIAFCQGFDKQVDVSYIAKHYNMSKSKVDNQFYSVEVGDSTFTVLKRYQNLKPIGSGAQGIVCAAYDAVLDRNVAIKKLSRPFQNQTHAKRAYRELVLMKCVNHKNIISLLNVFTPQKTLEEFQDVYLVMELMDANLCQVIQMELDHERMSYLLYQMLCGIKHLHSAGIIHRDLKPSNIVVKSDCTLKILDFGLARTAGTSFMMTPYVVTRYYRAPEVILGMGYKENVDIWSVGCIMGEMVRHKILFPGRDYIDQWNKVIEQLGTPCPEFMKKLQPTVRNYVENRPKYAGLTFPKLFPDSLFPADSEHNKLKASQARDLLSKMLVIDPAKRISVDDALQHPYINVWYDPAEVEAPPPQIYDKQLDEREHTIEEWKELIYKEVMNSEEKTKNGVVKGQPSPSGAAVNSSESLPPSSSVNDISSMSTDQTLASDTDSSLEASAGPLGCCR
Galanin receptor type 3, sequence (O60755 whole entry): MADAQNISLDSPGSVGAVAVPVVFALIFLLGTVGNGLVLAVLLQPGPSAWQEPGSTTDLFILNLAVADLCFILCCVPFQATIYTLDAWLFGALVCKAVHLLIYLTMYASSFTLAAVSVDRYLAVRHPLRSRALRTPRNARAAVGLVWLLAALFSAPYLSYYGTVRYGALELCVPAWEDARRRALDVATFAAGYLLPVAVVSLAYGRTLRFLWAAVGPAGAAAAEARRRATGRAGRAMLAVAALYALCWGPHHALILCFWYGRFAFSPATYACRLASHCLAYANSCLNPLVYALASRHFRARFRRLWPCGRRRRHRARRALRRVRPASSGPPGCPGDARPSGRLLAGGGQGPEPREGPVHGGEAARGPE

In the case of `Cc1nc2c(=O)n(C)c(=O)n(C)c2nc1Cl`, the CC50 [1] is reported as 10.6 µM (active), the EC50 (Protein RecA) is reported as 8.48 µM (active) and the IC50 (cells [2]) is reported as 6.22 µM (active). For the same compound, the AC50 [3] was 17.3 µM (active), the CC50 [4] was 12.1 µM (active) and the AC50 [5] was 32.9 µM (active). For the same compound, the CC50 [6] was 7.41 µM (active), the IC50 [7] was 4.73 µM (active) and the AC50 (Paired box protein Pax-8) was 8.88 µM (active). For the same compound, the EC50 [8] was 14.3 µM (active) and the IC50 [9] was 1.37 µM (active).

With `O=C1Nc2ccc(F)cc2/C1=C1/Nc2ccc(Br)cc2C1=O` the IC50 (Danio rerio) was 0.35 µM (not active).

For `COc1cc(/C=C2\C(=O)N(c3ccccc3)N=C2C)ccc1Oc1ccc([N+](=O)[O-])cc1[N+](=O)[O-]`, the IC50 (Genome polyprotein [10]) was > 49.8 µM (not active), the IC50 (SUMO-activating enzyme [11]) was 5.91 µM (active) and the IC50 (Genome polyprotein [12]) was 58 µM (active). The IC50 (SUMO-activating enzyme [13]) was 24.5 µM (active).

In the case of `COc1cc(CC(=O)Nc2sccc2C(N)=O)cc(OC)c1OC`, the IC50 [14] is reported as 5.94 µM (active).

In the case of `CCC(NC(=O)Nc1nnc(C(F)(F)F)s1)(C(F)(F)F)C(F)(F)F`, the EC50 [15] is reported as 1.4 µM (active), the IC50 [16] is reported as 4.77 µM (active) and the EC50 (cells [17]) is reported as > 29.9 µM (inactive). For the same compound, the AC50 [18] was 6.87 µM (active), the AC50 [19] was 4.23 µM (active) and the EC50 [20] was 3.15 µM (active). For the same compound, the IC50 (Galanin receptor type 3) was > 3.32 µM (active), the EC50 (Streptococcus) was 3.27 µM (active) and the AC50 [21] was 4.15 µM (active). For the same compound, the EC50 [22] was 2.79 µM (active) and the AC50 (HEK293) was 7.24 µM (active).
